Assay results taken from patent publication US11384071B2, “Inhibitors of mechanotransduction to treat pain and modulate touch perception” (Max-Delbrück-Centrum für Molekulare Medizin in der …, priority 2016, dated 2022).

Assays:
[1] = test system: dissociated mouse DRG neurons; test: Action potential properties and electrical excitability of dissociated DRG neurons; assay type: cell-based
Protocol: (§1) Whole-cell, patch-clamp recordings were conducted as previously described 5-7, using patch pipettes with a tip resistance of 3-6 MΩ, filled with a solution of: 110 mM KCl, 10 mM NaCl, 1 mM MgCl2, 1 mM EGTA and 10 mM HEPES, adjusted to pH 7.3 with KOH. (For experiments on DRG neurons 10 mM QX-314 was added to the pipette to block voltage-gated sodium channels 8 Extracellular solutions contained 140 mM NaCl, 4 mM KCl, 2 mM CaCl2, 1 mM MgCl2, 4 mM glucose, 10 mM HEPES, adjusted to pH 7.4 with NaOH. A Zeiss 200 inverted microscope and an EPC-10 amplifier in combination with Patchmaster software was used, data was analyzed using Fitmaster software (HEKA Electronik GmbH, Germany). Pipette and membrane capacitance were compensated using the auto function of Patchmaster, series resistance was compensated by at least 60% to minimize voltage errors. Mechanical stimuli were applied using a polished glass probe driven by the MM3A micromanipulator (Kleindiek Nanotechnik, Germany). Mechanical stimuli were applied by either; indenting the cell soma or by culturing cells on elastomeric pillar arrays and applying the stimulus to the cell-substrate interface by deflecting an individual pilus.
Briefly, elastomeric pillar arrays of defined dimensions were cast in PDMS with an elasticity of 2 MPa. Cells cultured on these arrays were monitored using whole-cell patch-clamp whilst a glass probe was used to apply repeated deflections (of differing magnitudes) to an individual pilus directly beneath the cell. Images were obtained of the pilus before and after deflection and images were analyzed off-line to determine the exact deflection for each data point. Images were obtained using a 40×LD objective and a CoolSNAP EZ CCD camera. Images were analyzed off-line using Igor software (WaveMetrics, USA). The collection of stimulus-response data using pillar arrays generates data sets with variation in both x and y. In order to effectively compare groups for each cell studied we binned response data by stimulus size in the following bins: 0-10, 10-50, 50-100, 100-250, 250-500, 500-1000. For each cell, current amplitudes within each bin were averaged and then bins averaged between cells—we then tested for significance by testing whether the current amplitude for a given stimulation range (i.e. bin) differed between samples. A power analysis was used to determine that moderate to strong effects between samples could be detected with a sample size >4. […] To distinguish mechanoreceptors from nociceptors in the mixed population of acutely prepared DRG neurons, the shape of the generated action potential (AP) was used. […] For quantitative analysis of mechanosensitivity we measured responses in the most sensitive sub-population of mechanoreceptors, previously defined as Typell mechanoreceptors (Poole et al., 2014).
We evaluated the effects of OB-1 and OB-2 on mechanosensitive currents in acutely cultured mouse sensory neurons. Neurons were classified on the basis of their AP configuration as mechanoreceptors or nociceptors^2,21.

[2] = test system: RA-currents in mechanoreceptor sensory neurons; test: Cell soma indentation, RA-mechanosensitive currents in sensory neurons; assay type: cell-based, mouse
Protocol: as §1
We evaluated the effects of OB-1 and OB-2 on mechanosensitive currents in acutely cultured mouse sensory neurons. […]

[3] = target: T1, stomatin (Mus musculus, UniProt P54116); test: BiFC assay of stomatin self-association; assay type: cell-based
T1 construct: expressed in transfected cells; host or cells: HEK293 (general statement on the BiFC assay)
Protocol: FIG. 8: Effects of STOML3 modulating molecules on other Stomatin-domain proteins. (a) BiFC signal development observed when cells were transfected with Stomatin-VC/-VN, STOML1-VC/-VN, STOML2-VC/-VN, STOML3-VC/-VN or Podocin-VC/-VN expression constructs respectively. […] (b) OB-1 was tested at two different concentrations (2 μm and 20 μm) using the BiFC assay where wild type STOML3 was used as both bait and prey.
In mammals STOML3 belongs to a family of five structurally conserved membrane proteins, including stomatin, STOML1, STOML2, and podocin^10,12-16, all of which self-associate via their stomatin-domain (FIG. 8a)^10. Self-association of stomatin-domain proteins can be monitored in HEK293 cells using Bimolecular Fluorescence Complementation (BiFC) whereby N- and C-terminal halves of the YFP molecule are tagged to the prey and bait protein STOML3^2,17 (FIG. 1a). Irreversible association of the YFP fragments produces fluorescence that increases linearly over time (FIG. 1b).

[4] = test system: naive mice; test: Paw withdrawal threshold and radiant heat latency in naive mice; assay type: in vivo, mouse; details: intraplantar 250-500 pmol per paw
Description: Mice were allowed to habituate to the testing apparatus (acrylic chambers 10×10 cm in size, suspended above a wired mesh grid) one hour prior to behavioral testing. Only once the subject was at rest and not moving, calibrated von-Frey hair monofilaments (Aesthesio® set of 20 monofilaments, Ugo Basil) were applied to the plantar surface of the hind paw in order to deliver target forces from 0.008 grams to 4 grams increasing in an approximately logarithmic scale. A single stimulus indicated by a slight bending of the filament lasted for two seconds unless the mouse withdrew its paw. In order to measure mechanosensitivity the up-and-down method described by Chaplan^13 was adapted as follows: Testing began with a filament delivering a target force of 0.4 g, but filaments were applied three times. A positive response was noted if the subject withdrew the paw to all three filament applications, so that the successively smaller filament was presented next. […] Paw withdrawal thresholds were calculated as median of 23 to 30 determined turning points of the particular force stimuli applied to the subject.
Drug injections of OB-1 or DMSO alone were dissolved in Ringer's solution (in mM: 135 NaCl, 5 KCl, 5 HEPES, 1.8 CaCl2), 1 MgCl2) to make the OB-1 and vehicle solution. […]

[5] = test system: diabetic mice (STZ); test: Streptozotocin (STZ) painful diabetic neuropathy model, von Frey; assay type: in vivo, mouse
Protocol: Eight week old C57Bl/6 mice were used for diabetes experiments. Diabetes was induced. Briefly, 6 consecutive intraperitoneal injections of streptozotocin (STZ, Sigma-Aldrich, #S0130) were given with 24 h intervals at 60 mg/Kg body weight in citrate buffer (0.05M, pH 4.5) to induce diabetes. Blood glucose was maintained between 400 and 500 mg/dL throughout the experimental period. Mechanical sensitivity was measured in regular intervals and only those mice showing increased sensitivity to von Frey filaments as compared with basal sensitivity were selected for testing the effects of OB-1.
Von Frey filaments of increasing strength (0.07, 0.16, 0.4, 0.6, 1.0 and 1.4 g) are applied 5 times with at least 1 min interval to intraplantar surface of hind paws to test the mechanical sensitivity. […] Frequency of positive responses was recorded out of 5 stimuli and percent of withdrawal frequency was calculated. Threshold was calculated as the von Frey filament strength required to elicit 60% withdrawal frequency. Vehicle or OB-1 (approximately 20 μl solution, 250 pmol per paw) was injected subcutaneously into intraplantar surface of diabetic mice under mild isoflurane anesthesia and mechanical sensitivity was measured from both injected (ipsilateral) and non-injected (contralateral) paws at 4 and 24 h post-injection.

T1 sequence (P54116 whole entry): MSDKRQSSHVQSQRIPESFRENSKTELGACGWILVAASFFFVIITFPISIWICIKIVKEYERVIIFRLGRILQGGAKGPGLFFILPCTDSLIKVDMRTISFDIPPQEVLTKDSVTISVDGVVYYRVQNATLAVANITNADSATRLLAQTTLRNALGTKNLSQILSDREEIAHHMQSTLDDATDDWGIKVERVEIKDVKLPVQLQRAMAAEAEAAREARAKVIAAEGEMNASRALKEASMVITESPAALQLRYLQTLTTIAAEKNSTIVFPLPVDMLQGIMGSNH

CCOC(=O)c1c(-c2ccccc2)oc2ccc(Oc3c([N+](=O)[O-])ncn3C)cc12 [OB-1, Ethyl 5-((1-methyl-4-nitro-1H-imidazol-5-yl)oxy)-2-phenylbenzofuran-3-carboxylate]
AHP (after-hyperpolarization potential) ([1]; Mechanoreceptors (n = 9)): −62.3 ± 1.6 mV
APamp (action potential amplitude) ([1]; Mechanoreceptors (n = 9)): 97.8 ± 4.9 mV
APtime (total duration of action potential) ([1]; Mechanoreceptors (n = 9)): 11.90 ± 2.9 ms
Input R ([1]; Mechanoreceptors (n = 9)): 40.8 ± 6.7 MΩ
Threshold ([1]; Mechanoreceptors (n = 9)): 700.0 ± 305.9 pA
Tpeak (Time to action potential peak) ([1]; Mechanoreceptors (n = 9)): 7.5 ± 2.0 ms
Trep (Time to repolarizing peak) ([1]; Mechanoreceptors (n = 9)): 4.5 ± 1.7 ms
Vrest (Resting potential) ([1]; Mechanoreceptors (n = 9)): −56.6 ± 2.0 mV
AHP (after-hyperpolarization potential) ([1]; Nociceptors (n = 12)): −67.4 ± 1.3 mV
APamp (action potential amplitude) ([1]; Nociceptors (n = 12)): 115.4 ± 4.0 mV
APtime (total duration of action potential) ([1]; Nociceptors (n = 12)): 10.0 ± 1.5 ms
Input R ([1]; Nociceptors (n = 12)): 56.7 ± 5.2 MΩ
Threshold ([1]; Nociceptors (n = 12)): 1276.4 ± 256.0 pA
Tpeak (Time to action potential peak) ([1]; Nociceptors (n = 12)): 5.0 ± 0.7 ms
Trep (Time to repolarizing peak) ([1]; Nociceptors (n = 12)): 5.0 ± 1.1 ms
Vrest (Resting potential) ([1]; Nociceptors (n = 12)): −59.5 ± 1.2 mV
parameters indicative of electrical excitability ([1]; treated at least 3 h with 20 μM): no alteration
inactivation time constant (τ2) of mechanically-gated currents [2]: slowed
neurons displaying no mechanosensitive current ([2]; 12/21 neurons, control 21%): ~60%
self-association of stomatin (BiFC) [3]: effective inhibitor
paw withdrawal thresholds to mechanical stimuli [4]: no change
withdrawal latency for radiant heat stimuli [4]: no change
mechanical hypersensitivity ([5]; 250 pmol per paw, 4 h after treatment): substantially reversed
mechanical hypersensitivity, mean 60% withdrawal threshold ([5]; 24 h after a single treatment): returned to pre-drug treatment levels
